Measurements: US20090093485A1, “Novel Sulphonamide Derivatives as Glucocorticoid Receptor Modulators for the Treatment of Inflammatory Diseases” (ASTRAZENECA AB, priority 2004, published 2009)

target: T1, recombinant human GR (Homo sapiens, UniProt P04150); assay: Human Glucocorticoid Receptor (GR) Assay (fluorescence polarization, Panvera/Invitrogen kit); type: binding; details: GS Red tracer, incubated at room temperature for 2 hours, 100% control 10 μM Dexamethasone, read-out: GRhuFL_FP_v2 (GR-binders) IC50
T1 construct: purchased Panvera/Invitrogen P2812 (kit P2893)
T1 sequence (P04150 1-777): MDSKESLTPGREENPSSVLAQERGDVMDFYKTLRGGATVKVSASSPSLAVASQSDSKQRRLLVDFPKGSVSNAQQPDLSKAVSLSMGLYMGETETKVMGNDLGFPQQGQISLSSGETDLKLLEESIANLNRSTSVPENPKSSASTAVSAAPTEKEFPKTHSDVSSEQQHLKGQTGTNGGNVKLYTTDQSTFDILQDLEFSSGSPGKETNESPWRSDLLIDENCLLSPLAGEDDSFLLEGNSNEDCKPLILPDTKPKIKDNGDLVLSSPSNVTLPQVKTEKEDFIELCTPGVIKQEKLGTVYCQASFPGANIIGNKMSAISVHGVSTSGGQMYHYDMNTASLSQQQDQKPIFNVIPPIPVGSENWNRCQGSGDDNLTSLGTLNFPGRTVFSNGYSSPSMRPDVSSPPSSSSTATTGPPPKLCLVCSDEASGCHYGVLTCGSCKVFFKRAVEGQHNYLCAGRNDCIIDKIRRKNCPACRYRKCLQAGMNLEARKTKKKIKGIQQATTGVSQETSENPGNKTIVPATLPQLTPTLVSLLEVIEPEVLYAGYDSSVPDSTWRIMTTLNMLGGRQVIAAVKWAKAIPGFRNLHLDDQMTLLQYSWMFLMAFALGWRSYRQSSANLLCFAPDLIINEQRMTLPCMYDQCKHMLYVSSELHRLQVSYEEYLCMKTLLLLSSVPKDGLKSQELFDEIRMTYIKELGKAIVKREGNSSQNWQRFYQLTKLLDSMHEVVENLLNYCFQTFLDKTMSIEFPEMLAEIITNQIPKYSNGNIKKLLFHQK
Protocol: Human Glucocorticoid Receptor (GR) Assay
The assay is based on a commercial kit from Panvera/Invitrogen (Part number P2893). The assay technology is fluorescence polarization. The kit utilises recombinant human GR (Panvera, Part number P2812), a Fluoromone™ labelled tracer (GS Red, Panvera, Part number P2894) and a Stabilizing Peptide 10X (Panvera, Part number P2815). The GR and Stabilizing Peptide reagents are stored at −70° C. while the GS Red is stored at −20° C. Also included in the kit are 1M DTT (Panvera, Part number P2325, stored at −20° C.) and GR Screening buffer 10X (Panvera, Part number P2814, stored at −70° C. initially but once thawed stored at room temperature). Avoid repeated freeze/thaws for all reagents. The GR Screening buffer 10X comprises 100 mM potassium phosphate, 200 mM sodium molybdate, 1 mM EDTA and 20% DMSO.
Test compounds (1 μL) and controls (1 μL) in 100% DMSO were added to black polystyrene 384-well plates (Greiner low volume black flat-bottom, part number 784076). […] was 100% DMSO and 100% control was 10 μM Dexamethasone. Background solution (8 μL; assay buffer 10X, Stabilizing Peptide, DTT and ice cold MQ water) was added to the background wells. GS Red solution (7 μL; assay buffer 10X, Stabilizing Peptide, DTT, GS Red and ice cold water) was added to all wells except background wells. GR solution (7 μL; assay buffer 10X, Stabilizing Peptide, DTT, GR and ice cold water) was added to all wells. The plate was sealed and incubated in a dark at room temperature for 2 hours. The plate was read in an Analyst plate reader (LJL Biosystems/Molecular Devices Corporation) or other similar plate reader capable of recording fluorescence polarization (excitation wavelength 530 nm, emission wavelength […] and a dichroic mirror at 561 nm). The IC50 values were calculated using XLfit model 205.

In order of falling IC50:
1. Cc1cc(C)c(S(=O)(=O)N[C@@H](C)COc2cccc3cccnc23)c(C)c1 [Example 83, 2,4,6-Trimethyl-N-[(1S)-1-methyl-2-(8-quinolinyloxy)ethyl]benzenesulfonamide]  8900 nM
2. CCNc1nc(NC(C)C)nc(OCCNS(=O)(=O)c2cc(C)ccc2C)n1 [Example 15]  6300 nM
3. Cc1cc(NC(=O)CN(C2CCCCC2)S(=O)(=O)c2cccc3ccccc23)no1 [Example 12]  6000 nM
4. CCCCOc1ccc(NS(=O)(=O)c2cccc3c(N(C)C)cccc23)cn1 [Example 16]  4400 nM
5. Cc1cc(C)c(S(=O)(=O)N[C@@H](C)COc2ncnc3ccccc23)c(C)c1 [Example 82, 2,4,6-Trimethyl-N-[(1S)-1-methyl-2-(4-quinazolinyloxy)ethyl]benzenesulfonamide]  3400 nM
6. Cc1cccc(C)c1OCC(C)NS(=O)(=O)c1cccc([N+](=O)[O-])c1 (stereo not drawn) [Example 34, N-[2-(2,6-Dimethyl-phenoxy)-1-methyl-ethyl]-3-nitro-benzenesulfonamide]  3000 nM
7. Cc1cc(NC(=O)CN(CC2CCCCC2)S(=O)(=O)c2cccc3ccccc23)no1 [Example 13]  2200 nM
8. COC(=O)c1c(C)oc2ccc(N(C(=O)c3ccncc3)S(=O)(=O)c3ccc(C)cc3C)cc12 [Example 11]  2200 nM
9. C=CCN(c1nc(C)c(Cl)c(OC)n1)S(=O)(=O)c1ccc(C)cc1 [Example 14]  1700 nM
10. CCCN(c1nc(C)c(Cl)c(OC)n1)S(=O)(=O)c1ccc(C)cc1 [Example 9]  1600 nM
11. Cc1cc(C)c(S(=O)(=O)NCCc2c(C)[nH]c3ccc(C)cc23)c(C)c1 [Example 8]  1200 nM
12. CCOc1ccc(S(=O)(=O)NCCc2ccc(S(N)(=O)=O)cc2)c2cccnc12 [Example 6]  700 nM
13. Cc1csc(NC(=O)CN(CC(C)C)S(=O)(=O)c2cccc3ccccc23)n1 [Example 7]  700 nM
14. O=[N+]([O-])c1cc(Cl)ccc1NCCCNS(=O)(=O)c1ccc2ccccc2c1 [Example 5]  640 nM
15. CC(C)c1cc(C(C)C)c(S(=O)(=O)NCc2ccncc2)c(C(C)C)c1 [Example 10]  600 nM
16. Cc1cc(Br)ccc1S(=O)(=O)NC(C)CCc1ccccc1 (stereo not drawn) [Example 19, 4-Bromo-2-methyl-N-(1-methyl-3-phenyl-propyl)-benzenesulfonamide]  540 nM
17. Cc1cc(C)c(S(=O)(=O)N[C@@H](C)COc2ccnc3ccccc23)c(C)c1 [Example 81, 2,4,6-Trimethyl-N-[(1S)-1-methyl-2-(4-quinolinyloxy)ethyl]benzenesulfonamide]  370 nM
18. Cc1cc(C)c(S(=O)(=O)N[C@@H](C)COc2ccc3c(c2)OCO3)c(C)c1 [Example 80, N-[(1S)-2-(1,3-Benzodioxol-5-yloxy)-1-methylethyl]-2,4,6-trimethylbenzenesulfonamide]  230 nM
19. Cc1cc(C)c(S(=O)(=O)N[C@@H](C)COc2cccc3ncccc23)c(C)c1 [Example 79, 2,4,6-Trimethyl-N-[(1S)-1-methyl-2-(5-quinolinyloxy)ethyl]benzenesulfonamide]  140 nM
20. Cc1nn(-c2ccccc2)c(C)c1S(=O)(=O)N[C@@H](C)COc1cccc2cnccc12 [Example 160, N-[(1S)-2-(Isoquinolin-5-yloxy)-1-methylethyl]-3,5-dimethyl-1-phenyl-1-pyrazole-4-sulfonamide]  96 nM
21. Cc1cc(C)c(S(=O)(=O)NC(C)CCc2ccccc2)c(C)c1 (stereo not drawn) [Example 32, 2,4,6-Trimethyl-N-(1-methyl-3-phenyl-propyl)-benzenesulfonamide]  90 nM
22. Cc1cc(C)c(S(=O)(=O)N[C@@H](C)CNc2cccc3ncccc23)c(C)c1 [Example 126, 2,4,6-Trimethyl-N-[(1S)-1-methyl-2-(quinolin-5-Ylamino)ethyl]benzenesulfonamide]  75 nM
23. Cc1cc(C)c(S(=O)(=O)N[C@@H](C)CNc2cccc3[nH]ncc23)c(C)c1 [Example 125, N-[(1S)-2-(1H-Indazol-4-ylamino)-1-methylethyl]-2,4,6-trimethylbenzenesulfonamide]  42 nM
24. Cc1cc(C)c(S(=O)(=O)N[C@@H](C)COc2cccc3[nH]ccc23)c(C)c1 [Example 78, N-[(1S)-2-(1H-Indol-4-yloxy)-1-methylethyl]-2,4,6-trimethylbenzenesulfonamide]  23 nM
25. Cc1cc(C)c(S(=O)(=O)N[C@@H](C)CNc2c(C)ccc3ncccc23)c(C)c1 [Example 124, 2,4,6-Trimethyl-N-{(1S)-1-methyl-2-[(6-methylquinolin-5-yl)amino]ethyl}-benzenesulfonamide]  20 nM
26. Cc1cc(C)c(S(=O)(=O)N[C@@H](C)CNc2ccc(C)c3ncccc23)c(C)c1 [Example 123, 2,4,6-Trimethyl-N-{(1S)-1-methyl-2-[(8-methylquinolin-5-yl)amino]ethyl}-benzenesulfonamide]  18 nM
27. Cc1cc(C)c(S(=O)(=O)N[C@@H](C)COc2cccc3cnccc23)c(C)c1 [Example 77, N-[(1S)-2-(5-Isoquinolinyloxy)-1-methylethyl]-2,4,6-trimethylbenzenesulfonamide]  17 nM
